Source: PMC4576851 (Organic & biomolecular chemistry, 2015)

Molecular target: p97 (valosin containing protein, VCP, cdc48) (Homo sapiens, UniProt P55072)
Experiment: p97 ATPase inhibition assay
Type: biochemical

Sequence of p97 (valosin containing protein, VCP, cdc48) (P55072 2-806): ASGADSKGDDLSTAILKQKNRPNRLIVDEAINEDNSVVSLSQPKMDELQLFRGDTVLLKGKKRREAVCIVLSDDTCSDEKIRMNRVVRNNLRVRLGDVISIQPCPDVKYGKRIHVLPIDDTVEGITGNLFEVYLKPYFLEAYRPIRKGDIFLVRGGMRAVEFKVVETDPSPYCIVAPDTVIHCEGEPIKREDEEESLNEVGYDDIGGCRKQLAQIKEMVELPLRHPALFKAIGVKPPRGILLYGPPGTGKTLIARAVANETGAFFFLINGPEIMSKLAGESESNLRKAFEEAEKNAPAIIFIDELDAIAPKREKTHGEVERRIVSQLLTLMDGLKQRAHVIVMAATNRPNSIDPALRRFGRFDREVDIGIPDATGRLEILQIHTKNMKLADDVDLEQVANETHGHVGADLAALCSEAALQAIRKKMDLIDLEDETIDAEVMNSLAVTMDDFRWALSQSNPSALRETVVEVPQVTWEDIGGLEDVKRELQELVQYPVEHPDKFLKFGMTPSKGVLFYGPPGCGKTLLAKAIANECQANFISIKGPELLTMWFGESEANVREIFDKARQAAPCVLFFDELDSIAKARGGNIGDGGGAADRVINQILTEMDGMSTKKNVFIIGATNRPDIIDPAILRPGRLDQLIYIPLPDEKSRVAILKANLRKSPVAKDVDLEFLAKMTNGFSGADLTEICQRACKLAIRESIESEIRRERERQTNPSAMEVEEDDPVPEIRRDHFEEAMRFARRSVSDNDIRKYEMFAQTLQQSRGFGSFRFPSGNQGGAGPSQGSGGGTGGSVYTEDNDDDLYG

## C=C1OC(=O)C2(C1=O)[C@H](/C=C/C=C/CCC)C=C[C@@H](O)[C@@H]2O (stereo partly shown) [compound 2, oxaspirol B]
  IC50: 31.2 ± 3 µM
